# Experiments:
# renal function = conditions: rabbit, in vivo
# Description: The serum samples collected for measurement of bone metabolic markers were also subjected to biochemical analysis to examine renal function. Serum blood urea nitrogen (BUN) and creatinine were measured using an autoanalyzer (Hitachi 7180 chemistry analyzer; Hitachi Ltd, Tokyo, Japan). Blood samples in all groups were collected at 0, 6, 24 hours after the administration of TPTD on days 1 and 22. Blood samples in the C, […] and […] groups were also collected at days 3 and 7 after on the 1st and 22nd days of administration. The samples were centrifuged at 1700 x g, at 4°C for 15 minutes in tubes with clot activator and serum was collected in order to measure the concentration of osteocalcin.
# [1] = Plasma TPTD concentration and pharmacokinetics (Rat PTH IRMA Kit, non-compartmental model); format: in vivo, rabbit
# Description: Seventeen female New Zealand White rabbits (Kbl:NZW) were purchased from Kitayama Labs (Nagano, Japan) and were allowed to acclimatize with free access to water and food for 6 days before use. Throughout the experimental study, the animals were housed individually under a 12-h light/dark cycle with free access to water, but their food intake was restricted to 120g /day (LRC4, standard diet for rabbits; Oriental Yeast, Tokyo, Japan). The animals at 6 months of age were divided into 5 groups and were subcutaneously injected with 20 or 40 μg/kg of TPTD once-daily (D20 group [n = 3] and D40 group [n = 3], 140 or 280 μg/kg of TPTD once-weekly (W140 group [n = 3] and W280 group [n = 4]) for four weeks (Table 1). For the high-dose administration of TPTD, the dosage in once-daily treatment was set at 40 μg/kg/day based on a previous study, while the dosage of once-weekly TPTD treatment was set at 280 μg/kg/week; thus, the cumulative dose of TPTD each week was the same with the two treatment frequencies. In the W140 and W280 groups, saline was administered every day, except for the days on which TPTD was administered. Saline injections were administered to control animals (C group, n = 4) once daily and to each group as a vehicle.
# […] The samples were centrifuged at 1600 x g, at 4°C for 10 minutes and plasma samples were collected in order to measure the concentration of TPTD. […]
# Teriparatide acetate was synthesized at Asahi Kasei Pharma Corporation (Tokyo, Japan) and was used as a standard substance. The teriparatide acetate concentration in the rabbit plasma was quantified using a Rat PTH IRMA Kit (Immutopics, Inc., San Clemente, CA) according to the manufacturer’s instructions. The pharmacokinetic parameters were calculated using a non-compartmental model (Phoenix WinNonlin; Pharsight, Mountain View, CA).
compound,measurement,setting,value
"CC[C@H](C)[C@H](NC(=O)[C@H](CCC(=O)O)NC(=O)[C@H](CO)NC(=O)[C@@H](NC(=O)[C@@H](N)CO)C(C)C)C(=O)N[C@@H](CCC(N)=O)C(=O)N[C@@H](CC(C)C)C(=O)N[C@@H](CCSC)C(=O)N[C@@H](Cc1cnc[nH]1)C(=O)N[C@@H](CC(N)=O)C(=O)N[C@@H](CC(C)C)C(=O)NCC(=O)N[C@@H](CCCCN)C(=O)N[C@@H](Cc1cnc[nH]1)C(=O)N[C@@H](CC(C)C)C(=O)N[C@@H](CC(N)=O)C(=O)N[C@@H](CO)C(=O)N[C@@H](CCSC)C(=O)N[C@@H](CCC(=O)O)C(=O)N[C@@H](CCCN=C(N)N)C(=O)N[C@H](C(=O)N[C@@H](CCC(=O)O)C(=O)N[C@@H](Cc1c[nH]c2ccccc12)C(=O)N[C@@H](CC(C)C)C(=O)N[C@@H](CCCN=C(N)N)C(=O)N[C@@H](CCCCN)C(=O)N[C@@H](CCCCN)C(=O)N[C@@H](CC(C)C)C(=O)N[C@@H](CCC(N)=O)C(=O)N[C@@H](CC(=O)O)C(=O)N[C@H](C(=O)N[C@@H](Cc1cnc[nH]1)C(=O)N[C@@H](CC(N)=O)C(=O)N[C@@H](Cc1ccccc1)C(=O)O)C(C)C)C(C)C [TPTD, Teriparatide]","level of serum blood urea nitrogen (BUN), effect of TPTD",renal function,not significantly affected
same,"level of serum creatinine, effect of TPTD",renal function,not significantly affected
same,time for plasma TPTD levels to return to the basal levels,[1]; all of the dosage regimens,≤ 3 h
same,plasma TPTD concentration relative to Cmax by 2h,"[1]; all regimens (D20, D40, W140, W280), 2h post-dose",less than 40 % of Cmax
same,level at 5 min,"[1]; female, New Zealand White (Kbl:NZW), rabbit, plasma, sc, 20 ug/kg, Day 1, 5 min, D20 (20 μg/kg sc once-daily), n=3, IRMA, mean",7.14 ng/mL
same,level at 0.25 h,"[1]; female, New Zealand White (Kbl:NZW), rabbit, plasma, sc, 20 ug/kg, Day 1, 15 min, D20 (20 μg/kg sc once-daily), n=3, IRMA, mean",14.9 ng/mL
same,level at 0.5 h,"[1]; female, New Zealand White (Kbl:NZW), rabbit, plasma, sc, 20 ug/kg, Day 1, 30 min, D20 (20 μg/kg sc once-daily), n=3, IRMA, mean",19.8 ng/mL
same,level at 1 h,"[1]; female, New Zealand White (Kbl:NZW), rabbit, plasma, sc, 20 ug/kg, Day 1, 1 hour, D20 (20 μg/kg sc once-daily), n=3, IRMA, mean",11.8 ng/mL
same,level at 2 h,"[1]; female, New Zealand White (Kbl:NZW), rabbit, plasma, sc, 20 ug/kg, Day 1, 2 hour, D20 (20 μg/kg sc once-daily), n=3, IRMA, mean",1.77 ng/mL
same,level at 5 min,"[1]; female, New Zealand White (Kbl:NZW), rabbit, plasma, sc, 20 ug/kg, Day 22, 5 min, D20 (20 μg/kg sc once-daily), n=3, IRMA, mean",7.06 ng/mL
same,level at 0.25 h,"[1]; female, New Zealand White (Kbl:NZW), rabbit, plasma, sc, 20 ug/kg, Day 22, 15 min, D20 (20 μg/kg sc once-daily), n=3, IRMA, mean",17 ng/mL
same,level at 0.5 h,"[1]; female, New Zealand White (Kbl:NZW), rabbit, plasma, sc, 20 ug/kg, Day 22, 30 min, D20 (20 μg/kg sc once-daily), n=3, IRMA, mean",24.6 ng/mL
same,level at 1 h,"[1]; female, New Zealand White (Kbl:NZW), rabbit, plasma, sc, 20 ug/kg, Day 22, 1 hour, D20 (20 μg/kg sc once-daily), n=3, IRMA, mean",20.5 ng/mL
same,level at 2 h,"[1]; female, New Zealand White (Kbl:NZW), rabbit, plasma, sc, 20 ug/kg, Day 22, 2 hour, D20 (20 μg/kg sc once-daily), n=3, IRMA, mean",3.8 ng/mL
same,level at 24 h,"[1]; female, New Zealand White (Kbl:NZW), rabbit, plasma, sc, 20 ug/kg, Day 22, 24 hour, D20 (20 μg/kg sc once-daily), n=3, IRMA, mean",0.13 ng/mL
same,level at 5 min,"[1]; female, New Zealand White (Kbl:NZW), rabbit, plasma, sc, 40 ug/kg, Day 1, 5 min, D40 (40 μg/kg sc once-daily), n=3, IRMA, mean",9.83 ng/mL
same,level at 0.25 h,"[1]; female, New Zealand White (Kbl:NZW), rabbit, plasma, sc, 40 ug/kg, Day 1, 15 min, D40 (40 μg/kg sc once-daily), n=3, IRMA, mean",23.6 ng/mL
same,level at 0.5 h,"[1]; female, New Zealand White (Kbl:NZW), rabbit, plasma, sc, 40 ug/kg, Day 1, 30 min, D40 (40 μg/kg sc once-daily), n=3, IRMA, mean",34.3 ng/mL
same,level at 1 h,"[1]; female, New Zealand White (Kbl:NZW), rabbit, plasma, sc, 40 ug/kg, Day 1, 1 hour, D40 (40 μg/kg sc once-daily), n=3, IRMA, mean",29.9 ng/mL
same,level at 2 h,"[1]; female, New Zealand White (Kbl:NZW), rabbit, plasma, sc, 40 ug/kg, Day 1, 2 hour, D40 (40 μg/kg sc once-daily), n=3, IRMA, mean",10.6 ng/mL
same,level at 5 min,"[1]; female, New Zealand White (Kbl:NZW), rabbit, plasma, sc, 40 ug/kg, Day 22, 5 min, D40 (40 μg/kg sc once-daily), n=3, IRMA, mean",10.3 ng/mL
same,level at 0.25 h,"[1]; female, New Zealand White (Kbl:NZW), rabbit, plasma, sc, 40 ug/kg, Day 22, 15 min, D40 (40 μg/kg sc once-daily), n=3, IRMA, mean",32.7 ng/mL
same,level at 0.5 h,"[1]; female, New Zealand White (Kbl:NZW), rabbit, plasma, sc, 40 ug/kg, Day 22, 30 min, D40 (40 μg/kg sc once-daily), n=3, IRMA, mean",54 ng/mL
same,level at 1 h,"[1]; female, New Zealand White (Kbl:NZW), rabbit, plasma, sc, 40 ug/kg, Day 22, 1 hour, D40 (40 μg/kg sc once-daily), n=3, IRMA, mean",49.2 ng/mL
same,level at 2 h,"[1]; female, New Zealand White (Kbl:NZW), rabbit, plasma, sc, 40 ug/kg, Day 22, 2 hour, D40 (40 μg/kg sc once-daily), n=3, IRMA, mean",14 ng/mL
same,level at 5 min,"[1]; female, New Zealand White (Kbl:NZW), rabbit, plasma, sc, 140 ug/kg, Day 1, 5 min, W140 (140 μg/kg sc once-weekly), n=3, IRMA, mean",38 ng/mL
same,level at 0.25 h,"[1]; female, New Zealand White (Kbl:NZW), rabbit, plasma, sc, 140 ug/kg, Day 1, 15 min, W140 (140 μg/kg sc once-weekly), n=3, IRMA, mean",85.4 ng/mL
same,level at 0.5 h,"[1]; female, New Zealand White (Kbl:NZW), rabbit, plasma, sc, 140 ug/kg, Day 1, 30 min, W140 (140 μg/kg sc once-weekly), n=3, IRMA, mean",132 ng/mL
same,level at 1 h,"[1]; female, New Zealand White (Kbl:NZW), rabbit, plasma, sc, 140 ug/kg, Day 1, 1 hour, W140 (140 μg/kg sc once-weekly), n=3, IRMA, mean",121 ng/mL
same,level at 2 h,"[1]; female, New Zealand White (Kbl:NZW), rabbit, plasma, sc, 140 ug/kg, Day 1, 2 hour, W140 (140 μg/kg sc once-weekly), n=3, IRMA, mean",50.4 ng/mL
same,level at 5 min,"[1]; female, New Zealand White (Kbl:NZW), rabbit, plasma, sc, 140 ug/kg, Day 22, 5 min, W140 (140 μg/kg sc once-weekly), n=3, IRMA, mean",33.5 ng/mL
same,level at 0.25 h,"[1]; female, New Zealand White (Kbl:NZW), rabbit, plasma, sc, 140 ug/kg, Day 22, 15 min, W140 (140 μg/kg sc once-weekly), n=3, IRMA, mean",124 ng/mL
same,level at 0.5 h,"[1]; female, New Zealand White (Kbl:NZW), rabbit, plasma, sc, 140 ug/kg, Day 22, 30 min, W140 (140 μg/kg sc once-weekly), n=3, IRMA, mean",202 ng/mL

# — paper PMC5386260, “Acute development of cortical porosity and endosteal naïve bone formation from the daily but not weekly short-term administration of PTH in rabbit” (PLoS ONE, 2017)
